Where “and” joins values, the source holds several entries; their conditions need not be identical. Equal entries are not always repeated. Where two headings read alike, the source gives them in different places.
Assays:
WT MelBSt [1] = target: T1, WT MelBSt (Salmonella typhimurium, UniProt P30878); experiment: biochemical; format: binding; conditions: for effect on Trp→D2G FRET of D2G-bound protein (displacement): added to D2G-bound WT MelBSt; for IC50: IC50 of galactoside displacement on bound D2G, DDMB, 10 μM D2G, value could be over-estimated
T1 construct: Cys scanning mutagenesis for the full-length MelBSt; His10 (C); made in house; host or cells: E. coli DW2
Method: (§1) Fig. 1 Functional characterizations. a [^3H] Melibiose transport time course with intact cells. […] Inset, melibiose fermentation assay. Transformants with DW2 strain were plated on MacConkey agar plates containing 30 mM melibiose as the sole carbohydrate source and pH sensor neutral red, and incubated at 37 °C for 16–18 h before imaging. Number of tests = 3, from different batch of cells or duplicate measurements from same batch of sample. b Ligand binding by Trp→dansyl galactoside (D^2G) FRET assay. Purified proteins at 1 μM concentration in 20 mM Tris-HCl, pH 7.5, 100 mM CholCl, 10% glycerol, and 0.03% UDM were subjected to steady-state fluorescence measurements as described in Methods. On the time-trace, 1.8 μL of 1 mM D^2G at 10 μM was added into 180 μL of protein solutions at 1-min point, followed by supplying 10 μL of 5 mM DDMB or 5 mM α-NPG to displace the bound D^2G. For testing Na^+ or Li^+ binding, they are added into the solution before displacement with the second sugar. The structure of DDMB or α-NPG is shown in a chair form, and the carbon positions are labeled. Glycosidic bonds are indicated by arrows. Both are α-galactosides containing a substituent at the anomeric carbon-1. The data were from duplicate measurements.
(§2) Steady-state fluorescence measurements were performed with an AMINCO-Bowman series 2 spectrometer with purified MelBSt at 1 μM in 20 mM Tris-HCl, pH 7.5, 100 mM CholCl, 10% glycerol, 0.03% UDM. Using an excitation wavelength at 290 nm, the emission intensity was recorded at 490 nm. On a time-trace, D^2G, NaCl or LiCl, then DDMB or α-NPG, were sequentially added into the protein solutions at a 1 min-interval. […] An identical volume of water was used for the control. The decrease in intensity after each addition of DDMB or α-NPG was corrected by the dilution effect and plotted as a function of the accumulated α-NPG concentrations or estimated DDMB concentrations. The 50% inhibitory concentration (IC50) was determined by fitting a hyperbolic function to the data (OriginPro 2020b). The final concentration of each detergent is estimated to be 234 μM, which is less than their CMC value for (DDMB, 295 μM).
(§3) Supplementary Figure 2. Determination of DDMB binding affinity to MelBSt. (a) Titration with DDMB or a-NPG. MelBSt in 20 mM Tris-HCl, pH 7.5, 100 mM CholCl, 10% glycerol, 0.03% UDM without (1) or with 100 mM NaCl (2) were added with D2G at 10 μM at 1-min time point as indicated by triangle symbols on the Trp®dansyl FRET time trace. Starting at the 2-min of time point, DDMB or a-NPG solution was supplemented consecutively at a 1-min interval into MelBSt solution till no change in fluorescence intensity reached as indicated in star symbols. DDM and UDM were used as negative controls. 1% DDM or UDM was titrated into the mixture, The […]
(§4) At 2-min time point, additions of galactosides were colored in pink, a-NPG in yellow, UDM in blue, DDM in light blue, water in gray traces, respectively. (b) IC50 determination. The intensity decrease at each titration were corrected by the dilution effect, and plotted as a function of the accumulated DDMB or α-NPG concentration. The 50% inhibitory concentration (IC50) was determined by fitting the data to a hyperbolic function (OriginPro 2020b). Results are presented in […]
(§5) (1 picture or pasted object on this page, not shown here)

D59C MelBSt [2] = target: T2, D59C MelBSt (Salmonella typhimurium, UniProt P30878, D59C); experiment: Trp→dansyl galactoside (D2G) FRET time trace and IC50 of D2G displacement (D59C); format: binding; conditions: IC50 of galactoside displacement on bound D2G, DDMB, 10 μM D2G, value could be over-estimated
T2 construct: Cys scanning mutagenesis for the full-length MelBSt; His10 (C); made in house; host or cells: E. coli DW2
Method: as §1, §2, §3, §4, §5

D59A MelBSt = target: T3, D59A MelBSt (Salmonella typhimurium, UniProt P30878, D59A); experiment: Trp→dansyl galactoside (D2G) FRET time trace (D59A); format: binding; conditions: no Na+ or Li+ stimulation
T3 construct: Cys scanning mutagenesis for the full-length MelBSt; His10 (C); made in house; host or cells: E. coli DW2
Method: Fig. 1 Functional characterizations. a [^3H] Melibiose transport time course with intact cells. E. coli DW2 strain (melB^−, lacZ^−Y^−) expressed with the WT, D59C, or D59A MelBSt mutants were subjected to [^3H]melibiose active transport assay at 0.4 mM and 10 mCi/mmol in the presence of 20 mM or 100 mM NaCl or LiCl by a fast filtration method. Inset, melibiose fermentation assay. Transformants with DW2 strain were plated on MacConkey agar plates containing 30 mM melibiose as the sole carbohydrate source and pH sensor neutral red, and incubated at 37 °C for 16–18 h before imaging. Number of tests = 3, from different batch of cells or duplicate measurements from same batch of sample. b Ligand binding by Trp→dansyl galactoside (D^2G) FRET assay. Purified proteins at 1 μM concentration in 20 mM Tris-HCl, pH 7.5, 100 mM CholCl, 10% glycerol, and 0.03% UDM were subjected to steady-state fluorescence measurements as described in Methods. […]
Steady-state fluorescence measurements were performed with an AMINCO-Bowman series 2 spectrometer with purified MelBSt at 1 μM in 20 mM Tris-HCl, pH 7.5, 100 mM CholCl, 10% glycerol, 0.03% UDM. Using an excitation wavelength at 290 nm, the emission intensity was recorded at 490 nm. […]

D59C MelBSt [3] = target: T2, D59C MelBSt; experiment: biochemical; format: binding; conditions: even with increased concentration or in the presence of melibiose; Kd not determinable
Method: (§6) All ITC ligand-binding assays were performed with the TA Instruments (Nano-ITC device) at 25 °C. In a typical experiment, the titrand (MelBSt) in the ITC sample cell was titrated with the specified titrant (placed in the Syringe) by an incremental injection of 2-µL aliquots at an interval of 300 s at a constant stirring rate of 250 r.p.m. All samples were degassed using a TA Instruments Degassing Station (model 6326) for 15 min prior to the titration. Data processing was performed with the NanoAnalyze (version 3.6.0 software) provided with the ITC equipment. The normalized heat changes were subtracted from the heat of dilution elicited by last few injections, where no further binding occurred; the corrected heat changes were plotted against the molar ratio of titrant versus titrand. The values for association constant (Ka) value were determined by fitting the data with a one-site independent-binding model. At most cases, the binding stoichiometry (N) number was fixed to 1 since it is a known parameter, which can restrain the data fitting and achieve more accurate results. The dissociation constant Kd = 1/Ka.
(§7) Supplementary Figure 1. ITC measurements. ITC measurements were performed at 25 °C as described in Methods. (a) Binding thermography. For all tests, ligands and proteins are buffer- […]
(§8) (1 picture or pasted object on this page, not shown here) […]
(§9) matched. For melibiose binding measurements, a solution of 80 mM or 10 mM in the absence or presence of NaCl at 100 mM, was injected into the ITC sample cell containing the WT MelBSt at 80 μM without or with 100 mM NaCl, respectively. With the D59C mutant, […] was used. For α-NPG binding measurements, 0.5 mM or 0.4 mM solution was used to titrate the WT or D59C mutant at 50 μM in the absence or presence or 100 mM NaCl, respectively. For the Na+ or Li+ binding measurements, 5 mM or 2 mM solution was used to titrate WT MelBSt at 80 μM without or with 50 mM melibiose, respectively; 40 mM solutions was used to titrate the D59C mutant. (b) binding isotherm. Curve fit was carried out with a one-site independent-binding model included in the NanoAnalyze software (version 3.6.0).

WT MelBSt [4] = target: T1, WT MelBSt; experiment: biochemical; format: binding
Method: as §6, §7, §8, §9

WT MelBSt [5] = target: T1, WT MelBSt; conditions: ITC 25 °C, data from publication or averaged with more tests, read-out: Kd, Na+ binding, cited from earlier work

T1 sequence (P30878 whole entry): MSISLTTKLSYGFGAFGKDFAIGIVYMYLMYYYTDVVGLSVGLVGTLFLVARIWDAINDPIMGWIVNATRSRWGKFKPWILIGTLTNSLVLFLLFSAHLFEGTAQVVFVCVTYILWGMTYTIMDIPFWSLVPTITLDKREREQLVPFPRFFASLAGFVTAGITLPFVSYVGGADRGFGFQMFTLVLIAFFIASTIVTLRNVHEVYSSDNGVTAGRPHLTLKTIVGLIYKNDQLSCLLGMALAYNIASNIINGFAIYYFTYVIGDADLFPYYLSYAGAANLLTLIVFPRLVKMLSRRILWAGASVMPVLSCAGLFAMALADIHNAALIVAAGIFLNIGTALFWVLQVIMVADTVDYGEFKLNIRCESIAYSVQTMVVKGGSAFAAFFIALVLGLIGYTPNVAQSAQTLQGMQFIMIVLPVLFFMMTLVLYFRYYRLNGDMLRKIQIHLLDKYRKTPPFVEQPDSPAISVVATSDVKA
T2 sequence (P30878 whole entry D59C): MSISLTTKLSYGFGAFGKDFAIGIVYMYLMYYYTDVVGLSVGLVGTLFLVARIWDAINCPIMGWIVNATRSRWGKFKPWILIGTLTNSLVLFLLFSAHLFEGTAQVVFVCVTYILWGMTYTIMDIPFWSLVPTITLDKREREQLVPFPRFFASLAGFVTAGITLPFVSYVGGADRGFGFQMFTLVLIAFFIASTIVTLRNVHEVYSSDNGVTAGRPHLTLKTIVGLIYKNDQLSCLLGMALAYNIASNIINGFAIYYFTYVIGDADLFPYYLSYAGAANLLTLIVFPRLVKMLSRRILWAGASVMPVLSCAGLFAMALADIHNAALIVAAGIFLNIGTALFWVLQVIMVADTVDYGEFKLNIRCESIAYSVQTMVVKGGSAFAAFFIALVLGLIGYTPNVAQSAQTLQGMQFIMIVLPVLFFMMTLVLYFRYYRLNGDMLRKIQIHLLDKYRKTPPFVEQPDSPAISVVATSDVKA
T3 sequence (P30878 whole entry D59A): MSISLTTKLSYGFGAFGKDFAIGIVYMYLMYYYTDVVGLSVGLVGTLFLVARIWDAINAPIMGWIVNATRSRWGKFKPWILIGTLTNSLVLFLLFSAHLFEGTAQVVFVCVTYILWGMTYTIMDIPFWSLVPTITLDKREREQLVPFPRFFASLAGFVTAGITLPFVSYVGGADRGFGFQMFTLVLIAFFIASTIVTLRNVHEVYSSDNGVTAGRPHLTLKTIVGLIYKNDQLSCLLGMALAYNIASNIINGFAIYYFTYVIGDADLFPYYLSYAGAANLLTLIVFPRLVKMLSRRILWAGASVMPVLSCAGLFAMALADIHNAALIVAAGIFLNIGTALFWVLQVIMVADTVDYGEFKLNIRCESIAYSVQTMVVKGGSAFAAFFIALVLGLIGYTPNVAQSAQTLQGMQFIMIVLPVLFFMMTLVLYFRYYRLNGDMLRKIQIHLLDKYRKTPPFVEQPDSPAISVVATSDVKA

CCCCCCCCCCCCO[C@@H]1O[C@H](CO)[C@@H](O[C@H]2O[C@H](CO)[C@@H](O)[C@H](O)[C@H]2O)[C@H](O)[C@H]1O [DDM, dodecyl-β-D-maltopyranoside]
effect on Trp→D2G FRET of D2G-bound protein (displacement) (WT MelBSt [1]): only showed a dilution effect similar to the addition of water

CCCCCCCCCCCCOC1OC(COC2OC(CO)C(O)C(O)C2O)C(O)C(O)C1O [DDMB, dodecyl-β-D-melibioside]
IC50 (WT MelBSt [1]; Apo): 26.1 ± 5.46 µM
IC50 (WT MelBSt [1]; Na+ (100 mM)): 4.79 ± 0.28 µM
effect on Trp→D2G FRET of D2G-bound protein (displacement) (WT MelBSt [1]): large decrease in fluorescent intensity
decrease of IC50 in the presence of Na+ (WT MelBSt [1]; apo vs Na+): 5 fold
IC50 (D59C MelBSt [2]; Apo): 20 µM and 20.2 µM
IC50 (D59C MelBSt [2]; Na+ (100 mM)): 23.6 ± 3.9 µM
ligand binding by Trp→D2G FRET (D59A MelBSt): binds

[Li+] [Li^+]
heat changes derived from cation binding (ITC) (D59C MelBSt [3]): quite small
Kd (WT MelBSt [4]; Apo, ITC 25 °C, read-out: Kd, Li+ binding): 400 ± 100 µM
decrease of Kd in the presence of melibiose (WT MelBSt [4]; Li+ binding, apo vs melibiose): 6 fold
Kd (WT MelBSt [4]; Melibiose (50 mM), ITC 25 °C, read-out: Kd, Li+ binding): 70 ± 10 µM

[Na+] [Na^+]
heat changes derived from cation binding (ITC) (D59C MelBSt [3]): quite small
cooperativity, change of Kd with melibiose (WT MelBSt [4]; Na+ binding, apo vs melibiose): 8 fold
Kd (WT MelBSt [4]; apo MelB, rebuttal letter, read-out: affinity of apo MelB): 500 µM
Kd (WT MelBSt [5]; Apo): 680 ± 30 µM
Kd (WT MelBSt [5]; Melibiose (50 mM)): 80 ± 10 µM

CCCCCCCCCCCO[C@@H]1O[C@H](CO)[C@@H](O[C@H]2O[C@H](CO)[C@@H](O)[C@H](O)[C@H]2O)[C@H](O)[C@H]1O [UDM, undecyl-β-D-maltopyranoside]
effect on Trp→D2G FRET of D2G-bound protein (displacement) (WT MelBSt [1]): only showed a dilution effect similar to the addition of water

From publication PMC8329300, “X-ray crystallography reveals molecular recognition mechanism for sugar binding in a melibiose transporter MelB” (Communications Biology, 2021)
